Target: T1, CCR3 receptor (UniProt P51677)
T1 sequence (P51677 1-355): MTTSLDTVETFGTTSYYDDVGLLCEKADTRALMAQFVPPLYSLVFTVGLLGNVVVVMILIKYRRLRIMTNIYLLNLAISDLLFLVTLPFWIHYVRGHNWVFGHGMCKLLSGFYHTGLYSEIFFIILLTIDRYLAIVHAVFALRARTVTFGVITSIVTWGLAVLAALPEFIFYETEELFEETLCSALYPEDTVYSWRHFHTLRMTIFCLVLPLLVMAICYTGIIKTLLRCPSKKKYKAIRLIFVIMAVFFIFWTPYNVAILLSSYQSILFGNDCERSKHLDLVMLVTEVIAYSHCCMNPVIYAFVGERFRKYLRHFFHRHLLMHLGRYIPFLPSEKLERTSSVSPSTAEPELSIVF
Test: CCR3 Receptor Binding Assay ([125I]-labeled human eotaxin/CCL11 displacement on cells)
Method: Cells were washed once with PBS and resuspended in a binding buffer (25 mM HEPES pH 7.6, 5 mM MgCl2, 1 mM CaCl2, 0.5% BSA, 0.1% NaN3), […] of cell suspension (2×10^5 cells/well) and 0.1 nM [^125I]-labeled human eotaxin/CCL11 (2000 Ci/mmol specific activity) were mixed in a 96-well U-bottom polypropylene plate, and incubated for 60 min at room temperature for the binding reaction. The cell suspension was then transferred to a filtration plate (#MAFB, Millipore), and washed 3 times with the binding buffer containing 0.5 M NaCl, scintillant added, and the radioactivity was counted on a TopCount (Packard). For the determination of non-specific binding, the cell suspension and [^125I]-labeled human eotaxin/CCL11 were incubated in the presence of 500 nM of unlabeled human eotaxin/CCL11. See, lino et al., “Molecular cloning and functional characterization of cynomolgus monkey (Macaca fascicularis) CC chemokine receptor, CCR3,” Cytokine 2002, 19, 276-286.

[1] = Free (free form of the compound)
[2] = HCl: hydrochloric acid salt of the corresponding compound

SMILES	Ki [1] [nM]	Ki [2] [nM]	also measured
CCN1CCN(S(=O)(=O)c2cc([N+](=O)[O-])ccc2Oc2cc(Cl)ccc2Cl)CC1 [Compound 100, 1-(2-(2,5-Dichlorophenoxy)-5-nitrophenylsulfonyl)-4-ethylpiperazine]	≤ 10	–	–
N#Cc1ccc(Sc2cc(Cl)ccc2Cl)c(S(=O)(=O)N2CCC(N3CCCC3)CC2)c1 [Compound 84, 4-(2,5-Dichlorophenylthio)-3-(4-(pyrrolidin-1-yl)piperidin-1-ylsulfonyl)benzonitrile]	≤ 10	≤ 10	–
O=[N+]([O-])c1ccc(Oc2cc(Cl)ccc2Cl)c(S(=O)(=O)N2CCN(C3CCCCC3)CC2)c1 [Compound 119, 1-Cyclohexyl-4-(2-(2,5-dichlorophenoxy)-5-nitrophenylsulfonyl)piperazine]	≤ 10	–	–
CC1CN(S(=O)(=O)c2cc(C#N)ccc2Oc2cc(F)ccc2F)CC(C)N1 (centres unmarked) [Compound 53, 4-(2,5-Difluorophenoxy)-3-(3,5-dimethylpiperazin-1-ylsulfonyl)benzonitrile]	25 to 100	–	–
O=[N+]([O-])c1ccc(Oc2cc(Cl)ccc2Cl)c(S(=O)(=O)N2CCNCC2)c1 [Compound 147, 1-(2-(2,5-Dichlorophenoxy)-5-nitrophenylsulfonyl)piperazine]	> 5	25 to 100	–
Cc1ccc(C)c(Sc2ccc([N+](=O)[O-])cc2S(=O)(=O)N2CCN(C3CCCCC3)CC2)c1 [Compound 120, 1-Cyclohexyl-4-(2-(2,5-dimethylphenylthio)-5-nitrophenylsulfonyl)piperazine]	> 5	–	–
CCC(CC)N1CCN(S(=O)(=O)c2cc(C#N)ccc2Oc2cc(Cl)ccc2Cl)CC1 [Compound 89, 4-(2,5-Dichlorophenoxy)-3-(4-(pentan-3-yl)piperazin-1-ylsulfonyl)-benzonitrile]	10 to 25	–	–
CC1CCN(S(=O)(=O)c2cc(C#N)ccc2Oc2cc(Cl)ccc2Cl)CC1 [Compound 87, 4-(2,5-Dichlorophenoxy)-3-(4-methylpiperidin-1-ylsulfonyl)benzonitrile]	> 5	–	–
CC(C)N1CCN(S(=O)(=O)c2cc(C#N)ccc2Oc2cc(Cl)ccc2Cl)CC1 [Compound 88, 4-(2,5-Dichlorophenoxy)-3-(4-isopropylpiperazin-1-ylsulfonyl)benzonitrile]	≤ 10	–	–
CCCC(C)N1CCN(S(=O)(=O)c2cc(C#N)ccc2Oc2cc(Cl)ccc2Cl)CC1 (centres unmarked) [Compound 90, 4-(2,5-Dichlorophenoxy)-3-(4-(pentan-2-yl)piperazin-1-ylsulfonyl)-benzonitrile]	10 to 25	–	–
CN1CCN(S(=O)(=O)c2cc(C#N)ccc2Oc2cc(Cl)ccc2Cl)CC1 [Compound 96, 4-(2,5-Dichlorophenoxy)-3-(4-methylpiperazin-1-ylsulfonyl)benzonitrile]	25 to 100	–	–
Cc1ccc(C)c(Oc2ccc([N+](=O)[O-])cc2S(=O)(=O)N2CCN(C(C)C)CC2)c1 [Compound 109, 1-(2-(2,5-Dimethylphenoxy)-5-nitrophenylsulfonyl)-4-isopropylpiperazine]	> 5	–	–
Cc1ccc(C)c(Oc2ccc([N+](=O)[O-])cc2S(=O)(=O)N2CCN(C3CCCCC3)CC2)c1 [Compound 121, 1-Cyclohexyl-4-(2-(2,5-dimethylphenoxy)-5-nitrophenylsulfonyl)piperazine]	≤ 10	–	–
N#Cc1ccc(Oc2cc(F)ccc2F)c(S(=O)(=O)NCCN2CCCC2)c1 [Compound 63, 5-Cyano-2-(2,5-difluorophenoxy)-N-(2-(pyrrolidin-1-yl)ethyl)benzenesulfonamide]	> 5	> 5	–
CN1CCCN(S(=O)(=O)c2cc(C#N)ccc2Oc2cc(F)ccc2F)CC1 [Compound 57, 4-(2,5-Difluorophenoxy)-3-(4-methyl-1,4-diazepan-1-ylsulfonyl)benzonitrile]	–	> 5	–
CCN(CC)CCNS(=O)(=O)c1cc(C#N)ccc1Oc1cc(F)ccc1F [Compound 62, 5-Cyano-N-(2-(diethylamino)ethyl)-2-(2,5-difluorophenoxy)benzenesulfonamide]	–	> 5	–
O=[N+]([O-])c1ccc(Sc2cc(Cl)ccc2Cl)c(S(=O)(=O)N2CCCNCC2)c1 [Compound 127, 1-(2-(2,5-Dichlorophenylthio)-5-nitrophenylsulfonyl)-1,4-diazepane]	> 5	–	–
CCN1CCN(S(=O)(=O)c2cc([N+](=O)[O-])ccc2Sc2cc(Cl)ccc2Cl)CC1 [Compound 99]	10 to 25	–	–
N#Cc1ccc(Oc2cc(Cl)ccc2Cl)c(S(=O)(=O)N2CCN(C3CCCCCC3)CC2)c1 [Compound 91, 3-(4-Cycloheptylpiperazin-1-ylsulfonyl)-4-(2,5-dichlorophenoxy)benzonitrile]	10 to 25	–	–
N#Cc1ccc(Sc2cc(Cl)ccc2Cl)c(S(=O)(=O)N2CCN(C3CCCC3)CC2)c1 [Compound 80, 3-(4-Cyclopentylpiperazin-1-ylsulfonyl)-4-(2,5-dichlorophenylthio)-benzonitrile]	≤ 10	≤ 10	Ki ((CO2H)2 salt): 25 to 100 nM; Ki (EtSO3H salt): ≤ 10 nM; Ki (H2SO4 salt): ≤ 10 nM; Ki (HNO3 salt): 25 to 100 nM; Ki (MeSO3H salt): ≤ 10 nM
Cc1ccc(C)c(Oc2ccc([N+](=O)[O-])cc2S(=O)(=O)N2CC(C)NC(C)C2)c1 (centres unmarked) [Compound 106, 1-(2-(2,5-Dimethylphenoxy)-5-nitrophenylsulfonyl)-3,5-dimethylpiperazine]	> 5	–	–
CCN1CCN(S(=O)(=O)c2cc([N+](=O)[O-])ccc2Oc2cc(C)ccc2C)CC1 [Compound 102, 1-(2-(2,5-Dimethylphenoxy)-5-nitrophenylsulfonyl)-4-ethylpiperazine]	> 5	–	–
CC(C)N1CCN(S(=O)(=O)c2cc(C#N)ccc2Oc2cc(F)ccc2F)CC1 [Compound 54, 4-(2,5-Difluorophenoxy)-3-(4-isopropylpiperazin-1-ylsulfonyl)benzonitrile]	100 to 500	25 to 100	–

The next lines start with results.

Ki [1] [nM]	Ki [2] [nM]	SMILES	also measured
10 to 25	≤ 10	Cc1ccc(C)c(Sc2ccc(C#N)cc2S(=O)(=O)N2CCC(N3CCCC3)CC2)c1 [Compound 74, 4-(2,5-Dimethylphenylthio)-3-(4-(pyrrolidin-1-yl)piperidin-1-ylsulfonyl)-benzonitrile]	–
–	≤ 10	Cc1ccc(C)c(Sc2ccc([N+](=O)[O-])cc2S(=O)(=O)N2CCC(N3CCCC3)CC2)c1 [Compound 75, 1-(2-(2,5-Dimethylphenylthio)-5-nitrophenylsulfonyl)-4-(pyrrolidin-1-yl)piperidine]	–
25 to 100	25 to 100	CCC(CC)N1CCN(S(=O)(=O)c2cc(C#N)ccc2Sc2cc(C)ccc2C)CC1 [Compound 68, 4-(2,5-Dimethylphenylthio)-3-(4-(pentan-3-yl)piperazin-1-ylsulfonyl)benzonitrile]	–
> 5	–	Cc1ccc(C)c(Sc2ccc(C#N)cc2S(=O)(=O)N2CCS(=O)(=O)CC2)c1 [Compound 140]	–
≤ 10	≤ 10	CC1CN(S(=O)(=O)c2cc(C#N)ccc2Sc2cc(Cl)ccc2Cl)CC(C)N1 (centres unmarked) [Compound 79, 4-(2,5-Dichlorophenylthio)-3-(3,5-dimethylpiperazin-1-ylsulfonyl)benzonitrile]	–
100 to 500	25 to 100	Cc1ccc(C)c(Oc2ccc(C#N)cc2S(=O)(=O)N2CCNCC2)c1 [Compound 51, 4-(2,5-Dimethylphenoxy)-3-(piperazin-1-ylsulfonyl)benzonitrile]	–
> 5	–	Cc1ccc(C)c(Sc2ccc(C#N)cc2S(=O)(=O)N2CCOCC2)c1 [Compound 71, 4-(2,5-Dimethylphenylthio)-3-(morpholinosulfonyl)benzonitrile]	–
≤ 10	≤ 10	N#Cc1ccc(Sc2cc(Cl)ccc2Cl)c(S(=O)(=O)N2CCNCC2)c1 [Compound 76, 4-(2,5-Dichlorophenylthio)-3-(piperazin-1-ylsulfonyl)benzonitrile]	–
> 5	25 to 100	Cc1ccc(C)c(Sc2ccc(C#N)cc2S(=O)(=O)N2CCC(N(C)C)CC2)c1 [Compound 72, 3-(4-(Dimethylamino)piperidin-1-ylsulfonyl)-4-(2,5-dimethylphenylthio)-benzonitrile]	–
> 5	–	Cc1ccc(C)c(Sc2ccc(C#N)cc2S(=O)(=O)N2CCNCC2)c1 [Compound 65, 4-(2,5-Dimethylphenylthio)-3-(piperazin-1-ylsulfonyl)benzonitrile]	–
25 to 100	≤ 10	CN(C)C1CCN(S(=O)(=O)c2cc(C#N)ccc2Sc2cc(Cl)ccc2Cl)CC1 [Compound 83, 4-(2,5-Dichlorophenylthio)-3-(4-(dimethylamino)piperidin-1-ylsulfonyl)benzonitrile]	–
100 to 500	–	Cc1ccc(C)c(Sc2ccc(C#N)cc2S(=O)(=O)N2CCCN(C)CC2)c1 [Compound 70, 4-(2,5-Dimethylphenylthio)-3-(4-methyl-1,4-diazepan-1-ylsulfonyl)benzonitrile]	–
> 5	–	Cc1ccc(C)c(Sc2ccc(C#N)cc2S(=O)(=O)N2CCSCC2)c1 [Compound 85, 4-(2,5-Dimethylphenylthio)-3-(thiomorpholinosulfonyl)benzonitrile]	–

Source: patent US8669247B2, “2,5-disubstituted arylsulfonamide CCR3 antagonists” (Axikin Pharmaceuticals, Inc., priority 2009, dated 2014)
